The test system of assay [1] is MDA-MB-453. As to the kind of experiment: normalised response (% of control), CellTiter-Glo; higher = more viable cells (100 = DMSO, 0 = benzethonium chloride kill control). The settings on record: incubation time: 72 h. Put shortly: (§1)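 Every value is a normalised signal taken at one concentration of a dilution series. Compound was placed in 384-well plates at 5 concentrations in 10-fold steps over a compound-specific 10,000-fold range, and 20 µl of breast cancer cell suspension was seeded onto it. After 72 h, CellTox Green fluorescence (485/520 nm) was measured first and CellTiter-Glo luminescence second, following 10 min at room temperature. Each plate was scaled to 0.1 % DMSO (100) and a positive kill control (0).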

Assay [2] concerns BT-474. The assay is described as above. Particulars: incubation time: 72 h. Put shortly: as §1
In a further assay the test system is HCC1937. Described as above. Particulars: incubation time: 72 h. Put shortly:
as §1

The subject of assay [3] is CAL-85-1. Described as above. Particulars: incubation time: 72 h. Put shortly: as §1
Another assay deals with DU-4475. Described as above. The settings on record: incubation time: 72 h. The method, boiled down: as §1
The subject of assay [4] is MFM-223. Described as above. The settings on record: incubation time: 72 h. Put shortly:
as §1

The test system of the next assay is MDA-MB-468. Described as above. Particulars: incubation time: 72 h. The method, boiled down: as §1
For the next assay, the system named is SK-BR-3. The assay is described as above. Particulars: incubation time: 72 h. The method, boiled down:
as §1

In a further assay the test system is HCC1599. The description is as above. The settings on record: incubation time: 72 h. Put shortly: as §1
The test system of assay [5] is MDA-MB-436. The assay is described as above. Particulars: incubation time: 72 h. The method, boiled down:
as §1

The test system of a further assay is CAL-148. Described as above. The settings on record: incubation time: 72 h. The method, boiled down: as §1
The next assay deals with MDA-MB-231. The assay is described as above. Particulars: incubation time: 72 h. Put shortly:
as §1

Another assay deals with CAL-51. Described as above. The settings on record: incubation time: 72 h. The method, boiled down:
as §1

Assay [6] relates to BT-474. The settings on record: 72 h. Put shortly: (§2)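 The plates used were 384-well plates holding compound at 5 concentrations in 10-fold steps across a compound-specific 10,000-fold range, into which breast cancer cell lines were seeded in 20 µl suspension. Following 72 h incubation, CellTox Green fluorescence was read at 485/520 nm, and CellTiter-Glo luminescence was read after 10 min at room temperature. Normalisation on each plate used 0.1 % DMSO and a positive kill control. Dose-response curves gave the EC50, which was censored at the top concentration.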

The test system of assay [7] is MDA-MB-436. The settings on record: 72 h. The method, boiled down:
as §2

Assay [8] relates to MDA-MB-453. Particulars: 72 h. The method, boiled down:
(§3)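 To measure viability, fluorescence at 560/590 nm was read after 2.5 µl CellTiter-Blue had been added for 2 h at 37 °C. Cells from breast cancer lines had been seeded in 20 µl suspension onto 384-well plates pre-loaded with compound dissolved in 5 µl medium and kept for 72 h. EC50 comes from a fitted percent-inhibition dose-response curve censored at the highest concentration, after per-plate normalisation to vehicle and a positive kill control, Z'-factor checks, and removal of rows with zero drug sensitivity score.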

A further assay relates to HDQ-P1. The settings on record: 72 h. Put shortly:
as §3

Another assay concerns Hs578T. The settings on record: 72 h. Put shortly: as §2
In assay [9] the test system is MFM-223. Particulars: 72 h. Put shortly: as §2
Assay [10] relates to BT-549. The settings on record: 72 h. Put shortly:
as §2

For assay [11], the system named is CAL-85-1. The settings on record: 72 h. Here is the method: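 Drug sensitivity and resistance testing (DSRT) of breast cancer cell lines in 384-well plates, 5 concentrations in 10-fold dilutions over a compound-specific 10,000-fold range. After 72 h, cytotoxicity was read by CellTox Green fluorescence and viability by CellTiter-Glo luminescence (multiplexed), normalised to DMSO and benzethonium chloride controls. EC50 is the inflection point of the fitted dose-response curve (bottom asymptote free, so it can be relative for partial curves) and is censored at the highest tested concentration. Rows with DSS 0 (no meaningful response) were excluded.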

Assay [12] has as its system MFM-223. Particulars: 72 h. Put shortly:
as §3
This is another data set of the same source.

Assay [13] relates to BT-549. Particulars: 72 h. The method, boiled down:
as §3
The source holds these as a separate data set.

The subject of assay [14] is MDA-MB-436. The settings on record: 72 h. The method, boiled down: as §3
The source holds these as a separate data set.

For the molecule `Nc1ccccc1NC(=O)c1ccc(CNc2nccc(-c3cccnc3)n2)cc1` [Mocetinostat] (1000 nM), the normalised response turned out to be 62.8% in the assay on MDA-MB-453 [1]; 80.4% with BT-474 [2]; 67.8% in the assay on HCC1937; 87.9% with CAL-85-1 [3]; 76.3% in the assay on DU-4475; 77% with MFM-223 [4]. In addition, the normalised response was determined as 72% in the assay on MDA-MB-468; 78% in the assay on SK-BR-3; 81.2% with HCC1599; 78.2% in the assay on MDA-MB-436 [5]; 77% with CAL-148; 77.7% in the assay on MDA-MB-231. This molecule showed a normalised response in the assay on CAL-51 of 62.9%.
`COc1nc(N)nc2c1ncn2[C@@H]1O[C@H](CO)[C@@H](O)[C@@H]1O` [Nelarabine]: the “EC50, CellTiter-Glo” value in the assay with BT-474 [6] and with MDA-MB-436 [7] was above 10 µM each time.
As to `COc1nc(N)nc2c1ncn2[C@@H]1O[C@H](CO)[C@@H](O)[C@@H]1O` [Nelarabine] (1000 nM), the normalised response with MDA-MB-453 [1] stood at 87.3%; in the assay with BT-474 [2], 83.7%; in the assay on HCC1937, 96.2%; with CAL-85-1 [3], 99.1%; in the assay with DU-4475, 91.3%; with MFM-223 [4], 88.3%. Also, the normalised response is 92.1% in the assay on MDA-MB-468; 80.7% in the assay on SK-BR-3; 113% in the assay with HCC1599; 92.1% in the assay with MDA-MB-436 [5]; 85.6% in the assay on CAL-148; 93.9% in the assay with MDA-MB-231. This molecule also returned a normalised response in the assay on CAL-51 of 88.7%.
Regarding `Cc1ccc(Nc2nccc(N(C)c3ccc4c(C)n(C)nc4c3)n2)cc1S(N)(=O)=O` [Pazopanib], the “EC50, CellTiter-Blue viability” value in the assay with MDA-MB-453 [8] was 0.608 µM; in the assay with HDQ-P1, above 10 µM; in the assay with MFM-223 [12], 0.0346 µM; with BT-549 [13], 8.26 µM; in the assay with MDA-MB-436 [14], 0.107 µM. Besides, the entries for the “EC50, CellTiter-Glo” value in the assay on Hs578T, in the assay with MFM-223 [9] and in the assay with BT-549 [10] were above 10 µM, 0.645 µM and 4.18 µM, respectively. The “EC50, CellTox Green” value with CAL-85-1 [11] is above 10 µM.
Turning to `Cc1ccc(Nc2nccc(N(C)c3ccc4c(C)n(C)nc4c3)n2)cc1S(N)(=O)=O` [Pazopanib] (1000 nM), the normalised response worked out at 113% with MDA-MB-453 [1]; 93.9% with BT-474 [2]; 94.5% with HCC1937; 101% in the assay on CAL-85-1 [3]; 104% in the assay on DU-4475; 66.6% with MFM-223 [4]. The normalised response with MDA-MB-468 amounted to 103%; in the assay with SK-BR-3, 102%; with HCC1599, 106%; with MDA-MB-436 [5] it was 103%; with CAL-148, 98.6%; in the assay on MDA-MB-231, 106%. Further, the normalised response in the assay with CAL-51 came out at 104%.
In the case of `O=C(CCBr)N1CCN(C(=O)CCBr)CC1` [Pipobroman], the results for the “EC50, CellTiter-Blue viability” value in the assay with MDA-MB-453 [8] and with MFM-223 [12] were 6.14 µM and 6.19 µM, respectively.
As to `O=C(CCBr)N1CCN(C(=O)CCBr)CC1` [Pipobroman] (1000 nM), the normalised response in the assay on MDA-MB-453 [1] was found to be 101%; with BT-474 [2], 93.9%; in the assay on HCC1937, 103%; in the assay on CAL-85-1 [3], 105%; in the assay on DU-4475 it was 95.8%; with MFM-223 [4] it was 104%. Also, the normalised response stood at 99.6% in the assay with MDA-MB-468; 106% in the assay with SK-BR-3; 109% in the assay with HCC1599; 96.6% in the assay with MDA-MB-436 [5]; 101% in the assay on CAL-148; 99.5% in the assay with MDA-MB-231. Besides, the normalised response in the assay with CAL-51 worked out at 88.8%.

Values taken from the supplement of paper PMC4862054.
